The record followed here is patent US20260265238A1, “COMPOUNDS AND PHARMACEUTICAL COMPOSITIONS THAT DEGRADE SWI/SNF-RELATED MATRIX-ASSOCIATED ACTIN-DEPENDENT REGULATOR OF CHROMATIN SUBFAMILY A” (Plexium, Inc., priority 2023, published 2026).

For assay [1], the target named is T1, SMARCA2-HiBiT HeLa cells (protein which is expressed from the SMARCA2 gene) (Homo sapiens, UniProt P51531).
T1 construct: protein which is expressed from the SMARCA2 and SMARCA4 genes; host or cells: HeLa (SMARCA2-HiBiT engineered line)
T1 sequence (P51531 whole entry): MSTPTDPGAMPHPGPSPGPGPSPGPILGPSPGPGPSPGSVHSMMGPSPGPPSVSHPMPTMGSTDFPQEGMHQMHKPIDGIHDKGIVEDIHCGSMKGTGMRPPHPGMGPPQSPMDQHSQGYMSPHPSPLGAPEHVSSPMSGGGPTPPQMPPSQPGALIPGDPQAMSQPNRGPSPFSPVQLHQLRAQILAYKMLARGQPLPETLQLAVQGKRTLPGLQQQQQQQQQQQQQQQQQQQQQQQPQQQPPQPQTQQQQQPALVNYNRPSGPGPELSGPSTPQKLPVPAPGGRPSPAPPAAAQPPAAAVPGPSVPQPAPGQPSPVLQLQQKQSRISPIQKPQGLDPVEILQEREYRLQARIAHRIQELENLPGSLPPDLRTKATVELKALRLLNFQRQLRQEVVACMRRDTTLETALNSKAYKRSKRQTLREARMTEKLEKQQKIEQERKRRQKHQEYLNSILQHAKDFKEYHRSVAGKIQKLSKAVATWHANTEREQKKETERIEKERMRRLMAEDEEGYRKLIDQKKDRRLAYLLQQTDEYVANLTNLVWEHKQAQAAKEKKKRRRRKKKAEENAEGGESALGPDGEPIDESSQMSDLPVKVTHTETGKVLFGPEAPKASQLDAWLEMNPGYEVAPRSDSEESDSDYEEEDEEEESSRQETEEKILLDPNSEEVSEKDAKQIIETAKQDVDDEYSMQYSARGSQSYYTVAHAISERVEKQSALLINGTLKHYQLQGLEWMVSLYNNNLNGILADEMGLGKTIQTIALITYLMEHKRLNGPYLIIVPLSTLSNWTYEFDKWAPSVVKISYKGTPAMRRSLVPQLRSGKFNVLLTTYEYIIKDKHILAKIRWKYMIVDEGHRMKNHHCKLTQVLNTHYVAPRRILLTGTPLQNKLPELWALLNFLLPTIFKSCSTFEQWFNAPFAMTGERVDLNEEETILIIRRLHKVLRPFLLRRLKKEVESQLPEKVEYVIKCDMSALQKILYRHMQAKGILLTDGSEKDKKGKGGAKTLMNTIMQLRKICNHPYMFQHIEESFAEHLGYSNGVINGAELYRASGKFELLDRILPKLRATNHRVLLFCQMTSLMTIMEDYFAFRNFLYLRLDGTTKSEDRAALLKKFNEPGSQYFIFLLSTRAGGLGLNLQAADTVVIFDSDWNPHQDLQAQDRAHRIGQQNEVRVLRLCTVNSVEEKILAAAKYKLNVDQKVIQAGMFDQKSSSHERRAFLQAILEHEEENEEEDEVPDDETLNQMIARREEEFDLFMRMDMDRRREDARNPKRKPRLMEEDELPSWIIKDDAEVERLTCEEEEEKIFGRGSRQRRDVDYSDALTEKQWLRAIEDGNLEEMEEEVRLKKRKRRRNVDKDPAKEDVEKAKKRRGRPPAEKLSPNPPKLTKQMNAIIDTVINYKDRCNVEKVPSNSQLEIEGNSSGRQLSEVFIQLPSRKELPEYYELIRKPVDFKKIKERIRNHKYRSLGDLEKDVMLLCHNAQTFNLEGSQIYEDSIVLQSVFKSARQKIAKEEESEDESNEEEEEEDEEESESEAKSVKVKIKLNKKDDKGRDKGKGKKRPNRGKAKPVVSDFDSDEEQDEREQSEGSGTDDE
In words: SMARCA2 degradation assay (HiBiT-fusion HeLa cell line, 24 h, luminescence). It counts as cell-based. The procedure:
(§1) SMARCA2 and SMARCA4 Degradation Assay
(§2) Degradation of protein which is expressed from the SMARCA2 and SMARCA4 genes was monitored using engineered HiBiT-fusion HeLa cell lines from Promega. In brief, 384-well white opaque plates (Greiner) were seeded with SMARCA2-HiBiT or SMARCA4-HiBiT HeLa cells at 8,000 cells/well and incubated overnight at 37° C. to allow cell attachment. After overnight incubation, test compounds were added in a 10-point dilution series (typically 10 μM to 300 pM) using a TECAN D300e Digital Dispenser, and plates were subsequently incubated for 24 hours at 37° C. 24-hours post-treatment, protein levels were quantified with the addition of HiBiT lytic buffer, LgBiT protein, and HiBiT substrate, according to manufacturer's specifications. Plates were incubated on an orbital plate shaker for 10 minutes at room temperature. Resulting luminescent values were read out using a ClarioStar plate reader and used to construct dose-response curves and calculation of degradation DC50s (GraphPad Prism).
(§3) Activity of the tested compounds is provided in Table 4 below as follows: A=DC50<0.050 μM; B=0.05 μM<DC50<0.50 μM; C=<0.5 μM<DC50<5.0 μM; D=DC50>5.0 μM. For SMARCA2 and SMARCA4 degradation activity @1 μM, +++=>70%; ++=30-70%; +=<30%.

Assay [2] deals with T2, SMARCA4-HiBiT HeLa cells (protein which is expressed from the SMARCA4 gene) (Homo sapiens, UniProt P51532).
T2 construct: protein which is expressed from the SMARCA2 and SMARCA4 genes; host or cells: HeLa (SMARCA4-HiBiT engineered line)
T2 sequence (P51532 whole entry): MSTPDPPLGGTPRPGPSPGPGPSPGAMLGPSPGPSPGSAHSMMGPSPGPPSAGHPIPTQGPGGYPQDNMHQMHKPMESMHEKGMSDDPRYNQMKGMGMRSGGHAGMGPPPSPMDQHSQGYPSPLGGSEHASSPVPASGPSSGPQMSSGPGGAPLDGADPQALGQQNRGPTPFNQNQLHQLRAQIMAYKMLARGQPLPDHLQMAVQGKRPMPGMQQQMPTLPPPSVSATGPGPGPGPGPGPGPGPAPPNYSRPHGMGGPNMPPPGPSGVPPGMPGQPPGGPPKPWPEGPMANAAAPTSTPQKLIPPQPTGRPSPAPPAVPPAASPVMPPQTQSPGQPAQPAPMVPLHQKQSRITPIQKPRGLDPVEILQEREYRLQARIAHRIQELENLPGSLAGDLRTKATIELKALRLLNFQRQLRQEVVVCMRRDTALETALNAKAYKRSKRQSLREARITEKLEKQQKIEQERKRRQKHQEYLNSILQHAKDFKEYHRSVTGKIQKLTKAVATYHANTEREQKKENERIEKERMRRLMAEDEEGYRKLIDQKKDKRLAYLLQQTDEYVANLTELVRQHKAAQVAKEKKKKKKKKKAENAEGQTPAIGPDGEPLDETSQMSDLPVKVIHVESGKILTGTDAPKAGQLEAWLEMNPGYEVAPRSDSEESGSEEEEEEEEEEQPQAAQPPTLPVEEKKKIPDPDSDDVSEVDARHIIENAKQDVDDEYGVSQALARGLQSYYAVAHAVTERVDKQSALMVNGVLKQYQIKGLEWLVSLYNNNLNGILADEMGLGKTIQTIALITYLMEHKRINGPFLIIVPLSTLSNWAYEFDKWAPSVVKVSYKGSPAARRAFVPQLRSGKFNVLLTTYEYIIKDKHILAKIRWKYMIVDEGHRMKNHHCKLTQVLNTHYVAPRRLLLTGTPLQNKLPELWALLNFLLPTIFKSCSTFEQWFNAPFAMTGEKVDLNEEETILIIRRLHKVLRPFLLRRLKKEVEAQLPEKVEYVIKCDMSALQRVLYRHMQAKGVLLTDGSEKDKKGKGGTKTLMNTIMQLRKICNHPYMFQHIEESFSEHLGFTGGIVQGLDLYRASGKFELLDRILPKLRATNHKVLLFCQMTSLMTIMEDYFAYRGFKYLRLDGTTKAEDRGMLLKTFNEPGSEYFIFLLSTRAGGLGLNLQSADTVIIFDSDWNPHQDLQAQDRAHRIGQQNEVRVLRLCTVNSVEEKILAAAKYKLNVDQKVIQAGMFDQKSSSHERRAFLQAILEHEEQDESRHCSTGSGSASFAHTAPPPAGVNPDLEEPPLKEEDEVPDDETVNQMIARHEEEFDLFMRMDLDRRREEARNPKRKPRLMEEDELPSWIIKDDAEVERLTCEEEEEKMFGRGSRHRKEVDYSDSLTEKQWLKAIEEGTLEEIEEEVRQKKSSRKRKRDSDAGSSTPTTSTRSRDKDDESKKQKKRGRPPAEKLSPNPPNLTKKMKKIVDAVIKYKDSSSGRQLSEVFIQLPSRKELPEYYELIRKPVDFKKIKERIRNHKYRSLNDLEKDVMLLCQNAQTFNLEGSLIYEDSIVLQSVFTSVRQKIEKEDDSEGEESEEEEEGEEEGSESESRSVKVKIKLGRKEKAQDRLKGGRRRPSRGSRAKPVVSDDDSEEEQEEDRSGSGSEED
In words: SMARCA4 degradation assay (HiBiT-fusion HeLa cell line, 24 h, luminescence). It counts as cell-based. The procedure: as §1, §2, §3

Molecules are shown by their SMILES.

`C[C@@H]1CCN(c2cc(-c3ccccc3O)nnc2N)CCN1c1ccnc(C#CCN2CCC3(CCC3)C2)n1` [Compound P-237, o-{5-[(R)-4-(2-{3-(6-aza-6-spiro| 3.4 | octyl)-1-propynyl}-4-pyrimidinyl)-5-methyl-1,4-diazepan-1-yl]-6-amino-3-pyridazinyl} phenol]: the DC50 in assay [1] and in assay [2] was less than 50 nM each time. In assay [1] (@ 1 μM), the “SMARCA2 % Degradation @ 1 μM” value is reported as “+++ (+++=>70%)”. The inhibition at 1 µM in assay [2] (@ 1 μM) is 30 to 70%.

For `CN1C(=O)NC2(CCN(CC#Cc3nccc(N4CCCN(c5cc(-c6ccccc6O)nnc5N)CC4)n3)CC2)C1=O` [Compound P-362, 8-[3-(4-{4-[3-amino-6-(o-hydroxyphenyl)-4-pyridazinyl]-1,4-diazepan-1-yl}-2-pyrimidinyl)-2-propynyl]-3-methyl-1,3,8-triaza-2,4-spiro [4.5]decanedione], the DC50 fell in the range of 50 to 500 nM in assay [1] and 500 to 5000 nM in assay [2]. In assay [1] (@ 1 μM), the “SMARCA2 % Degradation @ 1 μM” value is given as “++ (++=30-70%)”. Also, in assay [2] (@ 1 μM), the inhibition at 1 µM is 30 to 70%.

`CC1(C)CN(CC#Cc2nccc(N3CCCN(c4cc(-c5ccccc5O)nnc4N)CC3)n2)CCO1` [Compound P-311, 0-[6-amino-5-(4-{2-[3-(2,2-dimethyl-4-morpholinyl)-1-propynyl]-4-pyrimidinyl}-1,4-diazepan-1-yl)-3-pyridazinyl]phenol]: the DC50 in assay [1] is 50 to 500 nM; in assay [2] it was 500 to 5000 nM. The “SMARCA2 % Degradation @ 1 μM” value in assay [1] (@ 1 μM) is “++ (++=30-70%)”. The inhibition at 1 µM in assay [2] (@ 1 μM) fell in the range of 30 to 70%.

On to `C[C@@H]1CCN(c2cc(-c3ccccc3O)nnc2N)CCN1c1ccnc(C#CCN2CC[C@@H](F)C2)n1` [Compound P-236, o-{5-[(R)-4-(2-{3-[(R)-3-fluoro-1-pyrrolidinyl]-1-propynyl}-4-pyrimidinyl)-5-methyl-1,4-diazepan-1-yl]-6-amino-3-pyridaziny1} phenol], for which the DC50 in assay [1] and in assay [2] was less than 50 nM throughout. Moreover, the “SMARCA2 % Degradation @ 1 μM” value in assay [1] (@ 1 μM) was “++ (++=30-70%)”. Further, the inhibition at 1 µM in assay [2] (@ 1 μM) was less than 30%.

Consider `C[C@@H]1CCN(c2cc(-c3ccccc3O)nnc2N)CCN1c1ccnc(C#CC2CCCO2)n1` (stereo partly drawn) [Compound P-211, o-{5-[(R)-5-methyl-4-{2-[2-(tetrahydro-2-furyl)ethynyl]-4-pyrimidinyl}-1,4-diazepan-1-yl]-6-amino-3-pyridaziny1} phenol], for which the DC50 in assay [1] fell in the range of 50 to 500 nM; in assay [2], 500 to 5000 nM. The “SMARCA2 % Degradation @ 1 μM” value in assay [1] (@ 1 μM) is “++ (++=30-70%)”. The molecule further showed an inhibition at 1 µM in assay [2] (@ 1 μM) of less than 30%.

Consider `C[C@@H]1CCN(c2cc(-c3ccccc3O)nnc2N)CCN1c1ccnc(C#CCN2CC[C@H]2CF)n1` [Compound P-263, o-{5-[(R)-4-(2-{3-[(S)-2-(fluoromethyl)-1-azetidinyl]-1-propynyl}-4-pyrimidinyl)-5-methyl-1,4-diazepan-1-yl]-6-amino-3-pyridazinyl}phenol], for which the DC50 is 50 to 500 nM in assay [1] and less than 50 nM in assay [2]. The “SMARCA2 % Degradation @ 1 μM” value in assay [1] (@ 1 μM) is on record as “++ (++=30-70%)”. The inhibition at 1 µM in assay [2] (@ 1 μM) is less than 30%.

Turning to `Cn1cnc(C(=O)NCC#Cc2nccc(N3CCN(c4cc(-c5ccccc5O)nnc4N)CC3)n2)c1` [Compound P-67, N-(3-(4-(4-(3-amino-6-(2-hydroxyphenyl)pyridazin-4-yl)piperazin-1-yl)pyrimidin-2-yl)prop-2-yn-1-yl)-1-methyl-1H-imidazole-4-carboxamide], the DC50 in assay [1] and in assay [2] was 50 to 500 nM in each case. The “SMARCA2 % Degradation @ 1 μM” value in assay [1] (@ 1 μM) is on record as “+ (+=<30%)”. In assay [2] (@ 1 μM), this molecule had an inhibition at 1 µM of less than 30%.

Regarding `CC(C)OCC#Cc1cc(N2CCN(c3cc(-c4ccccc4O)nnc3N)CC[C@H]2C)ccn1` [Compound P-383, 0-(5-{(R)-4-[2-(3-isopropoxy-1-propynyl)-4-pyridyl]-5-methyl-1,4-diazepan-1-yl}-6-amino-3-pyridazinyl)phenol], the DC50 in assay [1] and in assay [2] was less than 50 nM each time. Besides, the “SMARCA2 % Degradation @ 1 μM” value in assay [1] (1 μM) is “+++ (+++=>70%)”. Besides, in assay [2] (1 μM), the inhibition at 1 µM fell in the range of 30 to 70%.

For `Nc1nnc(-c2ccccc2O)cc1N1CCCN(c2ccnc(C#CCn3ccn4nccc4c3=O)n2)CC1` [Compound P-109, 5-(3-(4-(4-(3-amino-6-(2-hydroxyphenyl)pyridazin-4-yl)-1,4-diazepan-1-yl)pyrimidin-2-yl)prop-2-yn-1-yl)pyrazolo[1,5-a]pyrazin-4(5H)-one], the DC50 in assay [1] was less than 50 nM; in assay [2], 50 to 500 nM. In addition, the “SMARCA2 % Degradation @ 1 μM” value in assay [1] (@ 1 μM) is “+++ (+++=>70%)”. The molecule further registered an inhibition at 1 µM in assay [2] (@ 1 μM) of 30 to 70%.

Take `C[C@@H]1CCN(c2cc(-c3ccccc3O)nnc2N)CCN1c1ccnc(C#CCn2cncn2)c1C#N` [Compound P-405, 4-{(R)-4-[3-amino-6-(0-hydroxyphenyl)-4-pyridaziny1]-7-methyl-1,4-diazepan-1-yl}-2-[3-(1H-1,2,4-triazol-1-yl)-1-propynyl]nicotinonitrile]: the values for the DC50 in assay [1] and in assay [2] were 500 to 5000 nM and greater than 5000 nM, respectively.

In the case of `Cc1oncc1C(=O)NCC#Cc1nccc(N2CCN(c3cc(-c4ccccc4O)nnc3N)CC2)n1` [Compound P-3, N-[3-(4-{4-[3-amino-6-(2-hydroxyphenyl)pyridazin-4-yl]piperazin-1-yl}pyrimidin-2-yl)prop-2-yn-1-yl]-5-methyl-1,2-oxazole-4-carboxamide], the half-maximal degradation concentration (DC50) in assay [1] and in assay [2] was 50 to 500 nM in each case. Also, the “SMARCA2 % Degradation @ 1 μM” value in assay [1] (@ 1 μM) is “++ (++=30-70%)”. Also, the inhibition at 1 µM in assay [2] (@ 1 μM) lay within 30 to 70%.

`CC1CCN(c2cc(-c3ccccc3O)nnc2N)CCN1c1ccnc(C#CCNC(=O)c2cc3ncccn3n2)n1` (stereo not drawn) [Compound P-46, N-(3-(4-(4-(3-amino-6-(2-hydroxyphenyl)pyridazin-4-yl)-7-methyl-1,4-diazepan-1-yl)pyrimidin-2-yl)prop-2-yn-1-yl)pyrazolo[1,5-a]pyrimidine-2-carboxamide]: the DC50 in assay [1] and in assay [2] was 50 to 500 nM in each case. Also, the “SMARCA2 % Degradation @ 1 μM” value in assay [1] (@ 1 μM) is listed as “+++ (+++=>70%)”. In assay [2] (@ 1 μM), this molecule gave an inhibition at 1 µM greater than 70%.

As to `C[C@@H]1CCN(c2cc(-c3ccccc3O)nnc2N)CCN1c1nc(C#CCN2CCCC2=O)ncc1F` [Compound P-203, 1-[3-(4-{(R)-4-[3-amino-6-(o-hydroxyphenyl)-4-pyridazinyl]-7-methyl-1,4-diazepan-1-y1}-5-fluoro-2-pyrimidinyl)-2-propynyl]-2-pyrrolidinone], the DC50 in assay [1] and in assay [2] was 50 to 500 nM in each case. Moreover, the “SMARCA2 % Degradation @ 1 μM” value in assay [1] (@ 1 μM) is “++ (++=30-70%)”. Further, in assay [2] (@ 1 μM), the inhibition at 1 µM was 30 to 70%.

Consider `CC(C)(C)OC(=O)NCC#Cc1nccc(N2CCCN(c3cc(-c4ccccc4O)nnc3N)CCC2)n1` [Compound P-304, 4-(5-{2-[3-(tert-butoxycarbonylamino)-1-propynyl]-4-pyrimidinyl}-1,5-diazocan-1-yl)-6-(o-hydroxyphenyl)-3-pyridazinamine], for which the DC50 in assay [1] and in assay [2] was 50 to 500 nM each time. The “SMARCA2 % Degradation @ 1 μM” value in assay [1] (@ 1 μM) was “+++ (+++=>70%)”.

On to `C[C@H]1CCN(c2cc(-c3ccccc3O)nnc2N)CCN1c1ccnc(C#CCNC(=O)c2cnc3ccccc3n2)n1` [Compound P-101, (S)-N-(3-(4-(4-(3-amino-6-(2-hydroxyphenyl)pyridazin-4-yl)-7-methyl-1,4-diazepan-1-yl)pyrimidin-2-y1)prop-2-yn-1-yl)quinoxaline-2-carboxamide], for which the DC50 in assay [1] and in assay [2] was less than 50 nM throughout. Also, the “SMARCA2 % Degradation @ 1 μM” value in assay [1] (@ 1 μM) is “+++ (+++=>70%)”. Also, the inhibition at 1 µM in assay [2] (@ 1 μM) was greater than 70%.

For the molecule `CC1CCN(c2cc(-c3ccccc3O)nnc2N)CCN1c1ccnc(C#CCN)n1` (stereo not drawn) [Compound P-85, 2-(6-amino-5-(4-(2-(3-aminoprop-1-yn-1-yl)pyrimidin-4-yl)-5-methyl-1,4-diazepan-1-yl)pyridazin-3-yl)phenol], the DC50 in assay [1] and in assay [2] was 500 to 5000 nM in each case. For the same molecule, the “SMARCA2 % Degradation @ 1 μM” value in assay [1] (@ 1 μM) is “+ (+=<30%)”. This molecule also showed an inhibition at 1 µM in assay [2] (@ 1 μM) of less than 30%.

As for `C[C@@H]1CCN(c2cc(-c3ccccc3O)nnc2N)CCN1c1ccnc(C#CCN2CCC3(CC2)COC3)n1` [Compound P-199, o-{5-[(R)-5-methyl-4-(2-{3-(2-oxa-7-aza-7-spiro[3.5]nonyl)-1-propynyl}-4-pyrimidinyl)-1,4-diazepan-1-y1]-6-amino-3-pyridazinyl}phenol], the DC50 in assay [1] and in assay [2] was 50 to 500 nM in each case. Further, in assay [1] (@ 1 μM), the “SMARCA2 % Degradation @ 1 μM” value is “+++ (+++=>70%)”. In addition, the inhibition at 1 µM in assay [2] (@ 1 μM) fell in the range of 30 to 70%.

Consider `C[C@@H]1CCN(c2cc(-c3ccccc3O)nnc2N)CCN1c1ccnc(C#CCNC(=O)OC(C)(C)C)n1` [Compound P-238], for which the DC50 in assay [1] and in assay [2] was 50 to 500 nM throughout. The “SMARCA2 % Degradation @ 1 μM” value in assay [1] (@ 1 μM) is “+++ (+++=>70%)”. Moreover, the inhibition at 1 µM in assay [2] (@ 1 μM) lay in the range of 30 to 70%.
